# Experimental data published in ChEMBL document CHEMBL4020767, “Structural insight into the active site of mushroom tyrosinase using phenylbenzoic acid derivatives” (Bioorg Med Chem Lett, 2017).
# Target: Mushroom tyrosinase (Agaricus bisporus, UniProt O42713+Q00024+C7FF04+C7FF05)
# Test: Inhibition of mushroom tyrosinase […] measured at 60 secs interval for 25 times
row,IC50 [µM],SMILES
1,6.97,O=C(O)c1cccc(-c2ccccc2)c1
2,15.3,COc1ccc(-c2cccc(C(=O)O)c2)cc1
3,10.59,O=C(O)c1cccc(-c2ccc(O)cc2)c1
4,100.18,O=C(O)c1ccccc1-c1ccc(O)cc1
5,63.24,O=C(O)c1ccc(-c2ccccc2)cc1
6,14.7,O=C(O)c1ccc(-c2ccc(O)cc2)cc1
7,> 100,COc1ccc(-c2ccccc2C(=O)O)cc1
8,> 100,O=C(O)c1ccccc1-c1ccccc1
9,15.3,COc1ccc(-c2ccc(C(=O)O)cc2)cc1
